Patent US7423177B2, “Carboxamide derivatives as therapeutic agents” (TransTech Pharma, Inc., priority 2001, dated 2008)

Experiments:
[1] = biological target: T1, RAGE (sRAGE) binding to Carboxymethyl Lysine (CML) (Homo sapiens, UniProt Q15109); assay: ELISA assay: inhibition of sRAGE binding to plate-bound CML; conditions: ligand CML coated on plate, concentration at which 50% signal has been inhibited
T1 construct: extracellular domain can be isolated by proteolysis of RAGE to generate soluble RAGE (sRAGE) comprised of the V and C domains
Method: (§1) This method is also described and claimed in co-pending U.S. Ser. No. 09/799,152 filed Mar. 5, 2001.
(§2) S100b, β-amyloid and CML (500 ng/100 μL/well) in 100 mM sodium bicarbonate/sodium carbonate buffer (pH 9.8) is loaded onto the wells of a NUNC Maxisorp flat bottom 96 -well microtitre plate. The plate is incubated at 4° C. overnight. The wells are aspirated and treated with 50 mM imidazole buffer saline (pH 7.2) (with 1 mM CaCl2/MgCl2) containing 1% bovine serum albumin (BSA) (300 μL/well) for two h at 37° C.
(§3) Test compounds are dissolved in nanopure water (concentration: 10-100 μM). DMSO may be used as co-solvent. 25 μL of test compound solution in 2% DMSO is added, along with 75 μL SRAGE (4.0×10^−4 mg/mL FAC) to each well and samples are incubated for 1 h at 37° C. The wells are washed 3 times with 155 mM NaCl pH 7.2 buffer saline and are soaked 10 seconds between each wash.
(§4) Non-Radioactive Binding is Performed by Adding:
(§5) 10 μL Biotinylated goat F(ab′)2 Anti-mouse IgG. (8.0×10^−4 mg/mL, FAC)
(§6) 10 μL Alk-phos-Sterptavidin (3×10^−3 mg/mL FAC)
(§7) 10 μL Polyclonal antibody for sRAGE (FAC 6.0×10^−3 mg/mL)
(§8) to 5 mL 50 mM imidazole buffer saline (pH 7.2) containing 0.2% bovine serum albumin and 1 mM […]. The mixture is incubated for 30 minutes at 37° C. 100 μL complex is added to each well and incubation is allowed to proceed at rt for 1 h. Wells are washed 3 times with wash buffer and soaked 10 s between each wash. 100 μL 1 mg/mL (pNPP) in 1 M diethanolamine (pH adjusted to 9.8 with HCl) is added. Color is allowed to develop in the dark for 1 to 2 h at rt. The reaction is quenched with 10 μL of stop solution (0.5 N NaOH in 50% ethanol) and the absorbance is measured spectrophotometrically with a microplate reader at 405 nm.

[2] = biological target: T2, RAGE (sRAGE) binding to S100b (Homo sapiens, UniProt Q15109); assay: ELISA assay: inhibition of sRAGE binding to plate-bound S100b; conditions: ligand S100b coated on plate, concentration at which 50% signal has been inhibited, read-out: ELISA Assay IC50 (μM) S-100b
T2 construct: extracellular domain can be isolated by proteolysis of RAGE to generate soluble RAGE (sRAGE) comprised of the V and C domains
Method: as §1, §2, §3, §4, §5, §6, §7, §8

[3] = biological target: T3, RAGE (sRAGE) binding to β-amyloid (Homo sapiens, UniProt Q15109); assay: ELISA assay: inhibition of sRAGE binding to plate-bound β-amyloid; conditions: ligand β-amyloid coated on plate, concentration at which 50% signal has been inhibited
T3 construct: extracellular domain can be isolated by proteolysis of RAGE to generate soluble RAGE (sRAGE) comprised of the V and C domains
Method: as §1, §2, §3, §4, §5, §6, §7, §8

T2 sequence (Q15109 23-342 limits assumed): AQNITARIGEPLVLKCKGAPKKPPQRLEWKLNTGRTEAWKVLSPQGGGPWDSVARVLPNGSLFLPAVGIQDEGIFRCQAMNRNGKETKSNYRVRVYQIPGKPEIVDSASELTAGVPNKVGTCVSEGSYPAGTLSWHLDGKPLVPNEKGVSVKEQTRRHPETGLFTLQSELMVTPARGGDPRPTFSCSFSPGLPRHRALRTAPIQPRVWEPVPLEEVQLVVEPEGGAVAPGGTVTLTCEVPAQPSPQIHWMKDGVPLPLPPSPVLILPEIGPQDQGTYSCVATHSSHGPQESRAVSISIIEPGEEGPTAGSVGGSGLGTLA
T3 sequence (Q15109 23-342 limits assumed): as above
T1 sequence (Q15109 23-342 limits assumed): as above

| Molecule | IC50 [1] | IC50 [2] | IC50 [3] |
| --- | --- | --- | --- |
| CCCCOc1cc(OCCCN(CC)CC)ccc1NC(=O)C(CC1CCN(C(=O)OC(C)(C)C)CC1)NC(=O)OCC1c2ccccc2-c2ccccc21 (stereo not drawn) [Example 22, 3-(1-Tert-butoxycarbonylpiperidin-4-yl)-2-(9-fluorenylmethoxycarbonylamino)propionic Acid 4-Diethylaminopropoxy-2-butoxyaniline Amide] | 0.5 to 1 µM | 1 to 5 µM | 0.5 to 1 µM |
| CCCCOc1cc(OCCCN(CC)CC)ccc1NC(=O)C(CC1CCNCC1)NC(=O)OCC1c2ccccc2-c2ccccc21 (stereo not drawn) [Example 23, 3-(Piperidin-4-yl)-2-(9-fluorenylmethoxycarbonylamino)propionic Acid 4-Diethylaminopropoxy-2-butoxyaniline Amide] | 1 to 5 µM | 0.5 to 1 µM | 0.5 to 1 µM |
| CCCCOc1cc(OCCCN(CC)CC)ccc1NC(=O)C(CC1CCN(Cc2ccccc2)CC1)NC(=O)OCC1c2ccccc2-c2ccccc21 (stereo not drawn) [Example 24, 3-(1-Benzylpiperidin-4-yl)-2-(9-fluorenylmethoxycarbonylamino)propionic Acid 4-Diethylaminopropoxy-2-butoxyaniline Amide] | < 0.5 µM | 0.5 to 1 µM | 0.5 to 1 µM |
| CCCCOc1cc(OCCCN(CC)CC)ccc1NC(=O)C(N)CC1CCN(Cc2ccccc2)CC1 (stereo not drawn) [Example 25, 3-(1-Benzylpiperidin-4-yl)-2-aminopropionic Acid 4-Diethylaminopropoxy-2-butoxyaniline Amide] | 10 to 20 µM | 5 to 10 µM | 10 to 20 µM |
| CCCCOc1cc(OCCCN(CC)CC)ccc1NC(=O)C(CC1CCN(C(=O)OCc2ccccc2)CC1)NC(=O)OCC1c2ccccc2-c2ccccc21 (stereo not drawn) [Example 26, 3-(1 -Benzyloxycarbonylpiperidin-4-yl)-2-(9-fluorenylmethoxycarbonyamino)propionic Acid 4-Diethylaminopropoxy-2-butoxyaniline Amide] | 0.5 to 1 µM | 1 to 5 µM | 1 to 5 µM |
| CCCCOc1cc(OCCCN(CC)CC)ccc1NC(=O)C(CC1CCN(C(=O)c2ccccc2)CC1)NC(=O)OCC1c2ccccc2-c2ccccc21 (stereo not drawn) [Example 27, 3-(1 -Benzoylpiperidin-4-yl)-2-(9-fluorenylmethoxycarbonylamino)propionic Acid 4-Diethylaminopropoxy-2-butoxyaniline Amide] | 1 to 5 µM | 1 to 5 µM | 1 to 5 µM |
| CCCCOc1cc(OCCCN(CC)CC)ccc1NC(=O)C(CC1CCN(C(=O)c2ccccc2)CC1)NC(=O)c1ccccc1 (stereo not drawn) [Example 28, 3-(1-Benzoylpiperidin-4-yl)-2-benzoylaminopropionic Acid 4-Diethylaminopropoxy-2-butoxyaniline Amide] | 1 to 5 µM | 5 to 10 µM | 5 to 10 µM |
| CCCCOc1cc(OCCCN(CC)CC)ccc1NC(=O)C(CC1CCCN(C(=O)OC(C)(C)C)C1)NC(=O)OCC1c2ccccc2-c2ccccc21 (stereo not drawn) [Example 29, 3-(Tert-butoxycarbonylpiperidin-3-yl)-2-(9-fluorenylmethoxycarbonylamino)propionic Acid 4-Diethylaminopropoxy-2-butoxyaniline Amide] | 1 to 5 µM | 1 to 5 µM | 1 to 5 µM |
| CCCCOc1cc(OCCCN(CC)CC)ccc1NC(=O)C(CC1CCCNC1)NC(=O)OCC1c2ccccc2-c2ccccc21 (stereo not drawn) [Example 30, 3-(Piperidin-3-yl)-2-(9-fluorenylmethoxycarbonylamino)propionic Acid 4-Diethylaminopropoxy-2-butoxyaniline Amide] | 0.5 to 1 µM | 0.5 to 1 µM | 0.5 to 1 µM |
| (2R)-2-tert-butoxycarbonylamino-3-[4-(benzyloxy)phenyl]propionic Acid 4-(3-diethylaminopropoxy)-N-isopropylaniline Amide [Example 15] | 5 to 10 µM | 1 to 5 µM | 1 to 5 µM |
